# Experimental data: PMC10860144, “Exploring the Dispersion and Electrostatic Components in Arene–Arene Interactions between Ligands and G4 DNA to Develop G4-Ligands” (Journal of Medicinal Chemistry, 2024)
# How the values were obtained:
# HeLa cells = experiment: HeLa cell viability (PrestoBlue); format: cell-based; settings: Homo sapiens, 48 h
# Description: (§1) Cell viability was measured using the PrestoBlue cell viability reagent (Invitrogen) according to the manufacturer’s recommendations.
# For HeLa cells, 5000 cells/well were seeded in complete medium on 96-wells, black walls plate the day before the treatment. Compounds were dissolved in medium at the indicated concentrations and added to cells. Five technical replicates were performed for each treatment. 48 h after treatment, 8 μL of PrestoBlue was added to each well and the cells were incubated at 37 °C for 15 min. Fluorescence (excitation 560 nm, emission 590 nm, 10 nm bandwidth) was recorded using a FLUOstar Omega Microplate Reader (BMG). […]
# as §1
# For HeLa cells, 5000 cells/well were seeded in complete medium on 96-wells, black walls plate the day before the treatment. […] Fluorescence (excitation 560 nm, emission 590 nm, 10 nm bandwidth) was recorded using a FLUOstar Omega Microplate Reader (BMG).
# For Immortalized Human Total Liver Cell Population (IHTLCP), 1850 cells/well were seeded in complete Prigrow III medium (abm) in 384-wells, black walls plate (Perkin Elmer) the day before the treatment. […] Percent viability of IHTLCP cells was calculated as FLUcmp -FLUbg/ FLUDMSO -FLUbg (n=3).
# THP1 cell viability was measured according to a previously published procedure.9
# dsDNA (5'Cy5-ds26) = experiment: MST with fluorescently labeled dsDNA; format: binding
# Description: (§2) We next challenged the compounds’ G4 selectivity with a FRET melting competition assay using 5 (2 μM) and 27 (5 μM) with c-MYC Pu22 G4 DNA and increasing amounts of dsDNA (Figure 6D and Table S1). […] In addition, we investigated if we could detect any binding of the compounds to dsDNA using MST with a fluorescently labeled dsDNA (Table S1).
# 5′-Cy5 labeled G4 DNAs for this study were purchased from Eurofins Genomics. Stock solutions were prepared in water at 100 μM concentration. The sequences used are listed in Supporting Information Table S1. The G4 DNA sequences were folded in KCl buffer (10 mM phosphate, 100 mM KCl, pH 7.4) by heating at 95 °C for 5 min and then cooling to room temperature. All the experiments were performed in 10 mM phosphate pH 7.4, 100 mM KCl, and 0.05% Tween20. The labeled DNA concentration is held constant at 25 nM, and ligand concentration is varied depending on ligands Kd (16 1:3 dilutions). The samples were loaded into standard MST graded glass capillaries and initial fluorescence intensity of the capillary was measured using Monolith NT.115 (Nano Temper, Germany) with 20% LED power. The change in fluorescence with ligand’s concentrations were plotted in Excel and fitted through nonlinear equation to obtain the binding constants.
# [1] = test system: Tba (thrombin binding aptamer); experiment: FRET melting assay, Tba G4 DNA; settings: 5 at 2 μM, 27 at 5 μM; G4 DNA 0.2 μM
# Description: Additional G4 DNA structures were examined in the FRET melting assay to study the selectivity of compound (5) and its methylated analogue (27) toward different G4 structures. Compounds 5 and 27 were tested at 2 and 5 μM, respectively, for their abilities to increase the thermal stability of G4 DNA structures (Figure 6C and Table S1). Overall, this confirms that compound 5 is a much stronger G4 stabilizer, as compared to 27.
# Synthetic labeled oligonucleotides for the FRET study were purchased from Eurofins Genomics. Stock solutions were prepared in MQ-water at 100 μM concentration. The sequences used are listed in Supporting Information Table S1. All the oligonucleotides except Pu22 were prefolded in 10 mM lithium cacodylate buffer (pH 7.4), with 10 mM KCl and 90 mM LiCl by heating for 10 min at 95 °C and then cooling in fridge for at least 1 h. […]
# The FRET occurs between two dyes (5′-FAM as donor and 3′-TAMRA as acceptor) linked at both extremities of a DNA oligonucleotide. […] This process can be detected by a reduction in the fluorescence emission of the donor. Fluorescence emission of the donor is recovered when the temperature increment triggers the thermal denaturation of the G4 structure. […] The stabilization (ΔTm) is calculated from comparison of Tm of the fluorescently labeled oligonucleotide in the presence or absence of the ligand.
# [2] = test system: c-MYC Pu22 G4 DNA in the presence of competitor dsDNA (ds26); experiment: FRET melting competition assay with dsDNA (ds26); format: binding, human; settings: 5 at 2 μM, 27 at 5 μM; 0–100 equiv ds26
# Description: as §2
# The FRET occurs between two dyes (5′-FAM as donor and 3′-TAMRA as acceptor) linked at both extremities of a DNA oligonucleotide. When the oligonucleotides are folded into G4 structures, the donor and acceptor are in proximity, which results in an energy transfer from the donor to the acceptor. This process can be detected by a reduction in the fluorescence emission of the donor. Fluorescence emission of the donor is recovered when the temperature increment triggers the thermal denaturation of the G4 structure. The experiments were performed in a Bio-Rad CFX96 real-time PCR device at temperatures from 10 to 95 °C at 1.5 °C/m heating rate using a 492 nm excitation wavelength and a 516 nm detection wavelength in 96-well plates. Each condition was tested in duplicate, and analysis of the data was carried out by using Excel and Origin 8 software. […] The stabilization (ΔTm) is calculated from comparison of Tm of the fluorescently labeled oligonucleotide in the presence or absence of the ligand.
IC50 (HeLa cells) [µM],binding to dsDNA (MST) (dsDNA (5'Cy5-ds26)),Compound,effect on thermal stability of Tba [1],change in compound-induced thermal stability of c-MYC Pu22 G4 DNA with increasing dsDNA [2]
0.88 to 1.1,no binding could be observed,"Cc1cc(C)c2nc(Nc3nc(C)cc(NCCCN(C)C)n3)nc(C)c2c1 [Compound 5, N4-(3-(Dimethylamino)propyl)-6-methyl-N2-(4,6,8-trimethylquinazolin-2-yl)pyrimidine-2,4-diamine]",Neither compound affected the thermal stability,No significant change
19 to 34,no binding could be observed,"Cc1cc(C)c2nc(Nc3nc(C)cc(C)n3)nc(C)c2c1 [Compound 27, N-(4,6-Dimethylpyrimidin-2-yl)-4,6,8-trimethylquinazolin-2-amine]",Neither compound affected the thermal stability,No significant change
